According to US20240293551A1, “USE OF ST-TYPE LIPID COMPOUNDS IN PREPARATION OF NUCLEIC ACID DELIVERY REAGENT AND RELATED PRODUCT” (INSTITUTE OF BASIC MEDICAL SCIENCES CHINESE ACADEMY OF …, priority 2021, published 2024):

System: PGY-sRNA-26
Experiment: In vivo delivery study of lipid-nucleic acid mixture (oral gavage, RT-qPCR of PGY-sRNA-26 in tissues)
Set-up: species or system mouse
Conditions: C57BL/6 mice, gavage, 100 μg lipid: 10 nmol PGY-sRNA-26, 12 hours; for delivery efficacy over each tissue and blood tested (broad-spectrum delivery): all tissues and blood tested; for oral delivery of single-stranded sRNA nucleic acids into mouse intestinal tissue: intestine
Procedure: 10 nmol of small RNA (as shown in Table 2) was dissolved in 400 μl of DEPC-treated water in a glass tube, 10 μl of the corresponding lipid stock solution was added such that the lipid mass in the system was 100 μg. The mixture was mixed thoroughly, heated in a 90° C. water bath for 15 minutes, and then cooled naturally to obtain the lipid nucleic acid mixture of lipid and small RNA.
C57BL/6 male mice, approximately 6 weeks old, weighing 20-24 g, were obtained from Beijing Vital River Laboratory Animal Technology Co., Ltd. The mice were housed in the SPF-grade animal facility at the Animal Center of the Institute of Basic Medical Sciences, Chinese Academy of Medical Sciences. The mice were fasted for 12 hours before gavage administration.
The resultant lipid nucleic acid mixture was orally administered to each mouse at a dose of 100 μg lipid: 10 nmol single-stranded 3′-methylated small RNA PGY-sRNA-26.
• 1) Blank group (n=4): mice were administered with 500 μl saline by gavage, this group served as a blank control; • 2) Free uptake group (n=4): mice were directly administered with small RNA PGY-sRNA-26 solution (10 nmol/mouse, 500 μl) by gavage, this group served as a negative control; • 3) Lipid-treated group (n=4): mice were administered with 500 μl lipid nucleic acid mixture prepared in step 2 by gavage.
After 12 hours of gavage administration, 500 μl blood from the eyeball of each mouse was sampled, added to 1.5 ml Trizol Reagent LS (purchased from Invitrogen), thoroughly mixed for lysis. 3 ml of Trizol Reagent LSwas added to tissue samples and homogenized for complete lysis, wherein the sampled tissues include heart, liver, spleen, lung, kidney, stomach, intestine, brain, blood, femur. RNA was extracted from 1 ml of the blood or the tissue lysate following the steps below: • Centrifuge at 4° C., 12,000 rpm for 5 min, discard the precipitate, transfer Trizol to a new centrifuge tube; • Add chloroform at 200 μL chloroform/mL Trizol, shake well, stand at room temperature for 5 min; • Centrifuge at 4° C., 12,000 rpm for 15 min; • Take the upper aqueous phase to another centrifuge tube, add isopropanol at 0.4 mL isopropanol/mL Trizol, mix well, and stand at low temperature for 10-20 min; • Centrifuge at 4° C., 12,000 rpm for 15 min, discard the supernatant, RNA precipitated at the bottom of the tube; • Add 1 mL of 75% ethanol, gently shake the centrifuge tube, suspend the precipitate; • Centrifuge at 4° C., 12,000 rpm for 15 min, discard the supernatant, add 1 mL of 75% ethanol, gently shake the centrifuge tube, suspend the precipitate; • Centrifuge at 4° C., 12,000 rpm for 15 min, discard the supernatant, air-dry at room temperature, dissolve RNA samples in 50 μL RNase-free H2O, measure OD value to quantify RNA concentration. 3.3 Reverse Transcription of sRNA to cDNA:
The reverse transcription system is as follows: Template RNA (200 ng/μL) 10 μL, 10×RT Buffer 2.0 μL, 25×dNTP Mix (100 mM) 0.8 μL, U6 RT stem-loop primer (10 μM) 2.0 μL, PGY-sRNA-26 RT stem-loop primer (10 μM) 2.0 μL, MultiScribe™ Reverse Transcriptase (50 U/μL) 1.0 μL, RNAse Inhibitor (40 U/μL) 1.0 μL, nuclease-free H2O 1.2 μL. After transient centrifugation, the reverse transcription system was placed in a PCR machine with the following reaction conditions: (1) 25° C., 10 min; (2) 37° C., 120 min; (3) 85° C., 5 min; (4) 4° C., stop reaction. After the reaction, add 20 μL RNAse-free ddH2O, adjust the final volume to 40 μL. The stem-loop primers used in this reverse transcription process were synthesized by Beijing Tianyi Huiyuan Biotechnology Co., Ltd. (U6 was used as a standard reference gene to calculate its relative expression, because U6 RT primer was used as a reference gene in relative quantification of RT-qPCR reactions for small RNA): […]

C[C@H](/C=C/[C@H](C)C(C)(C)O)[C@H]1CC[C@H]2/C(=C/C=C3C[C@@H](O)C[C@H](O)C3)CCC[C@]12C [Lipid 545]
can effectively orally deliver: oral delivery of single-stranded sRNA nucleic acids into mouse blood | oral delivery of single-stranded sRNA nucleic acids into mouse brain tissue | oral delivery of single-stranded sRNA nucleic acids into mouse femur | oral delivery of single-stranded sRNA nucleic acids into mouse heart tissue | oral delivery of single-stranded sRNA nucleic acids into mouse intestinal tissue | oral delivery of single-stranded sRNA nucleic acids into mouse kidney tissue | oral delivery of single-stranded sRNA nucleic acids into mouse liver tissue | oral delivery of single-stranded sRNA nucleic acids into mouse lung tissue | oral delivery of single-stranded sRNA nucleic acids into mouse spleen tissue | oral delivery of single-stranded sRNA nucleic acids into mouse stomach tissue
exhibited the best delivery efficacy: delivery efficacy over each tissue and blood tested (broad-spectrum delivery)

C[C@]12CCC(=O)C=C1CC[C@@H]1[C@@H]2CC[C@@]2(C)[C@H]1CC[C@]2(C)O [Lipid 546]
exhibited the best delivery efficacy: delivery efficacy over each tissue and blood tested (broad-spectrum delivery)
can effectively orally deliver: oral delivery of single-stranded sRNA nucleic acids into mouse blood | oral delivery of single-stranded sRNA nucleic acids into mouse brain tissue | oral delivery of single-stranded sRNA nucleic acids into mouse femur | oral delivery of single-stranded sRNA nucleic acids into mouse heart tissue | oral delivery of single-stranded sRNA nucleic acids into mouse intestinal tissue | oral delivery of single-stranded sRNA nucleic acids into mouse kidney tissue | oral delivery of single-stranded sRNA nucleic acids into mouse liver tissue | oral delivery of single-stranded sRNA nucleic acids into mouse lung tissue | oral delivery of single-stranded sRNA nucleic acids into mouse spleen tissue | oral delivery of single-stranded sRNA nucleic acids into mouse stomach tissue

C[C@H]1C[C@@H]2[C@H]([C@@H](O)C[C@@]3(C)[C@H]2CC[C@]3(O)C(=O)CO)[C@@]2(C)C=CC(=O)C=C12 [Lipid 547]
can effectively orally deliver: oral delivery of single-stranded sRNA nucleic acids into mouse blood | oral delivery of single-stranded sRNA nucleic acids into mouse femur | oral delivery of single-stranded sRNA nucleic acids into mouse heart tissue | oral delivery of single-stranded sRNA nucleic acids into mouse intestinal tissue | oral delivery of single-stranded sRNA nucleic acids into mouse kidney tissue | oral delivery of single-stranded sRNA nucleic acids into mouse liver tissue | oral delivery of single-stranded sRNA nucleic acids into mouse lung tissue | oral delivery of single-stranded sRNA nucleic acids into mouse spleen tissue | oral delivery of single-stranded sRNA nucleic acids into mouse stomach tissue
exhibited the best delivery efficacy: delivery efficacy over each tissue and blood tested (broad-spectrum delivery)
